Patent EP0799174B1, “BIOCIDAL ALCOHOLS, THEIR PRODUCTION AND THEIR USE” (SCHÜLKE & MAYR GMBH, priority 1994, dated 1996)

Assays:
Type in all cases: cell-based
[1] = system: Candida albicans ATCC 10231; test: MIC values, water-soluble (inhibition titre, dilution series in CSL)
Experimental: (§1) Standard formulation: • Rewopal MPG 40 25.0 g • aromatic alcohol 10 mmol • dem.* water to 100 g • lactic acid for adjusting the pH value to 7.0 q.s.
(§2) In sterile test tubes, 5 ml each of the dilutions of the disinfectant in WSH (water of standardized hardness) are mixed with 5 ml double-concentrated casein peptone soybean flour peptone solution (CSL) or CSL and deactivating substances.
(§3) To determine the bacteriostatic action on Staphylococcus aureus and Proteus mirabilis the tubes are inoculated by adding 0.1 ml of a CSL culture diluted 1:10 with CSL and incubated for 24 h at 37°C.
(§4) To test the fungistatic action, 0.1 ml of an undiluted CSL culture of Candida albicans which has been incubated at 37°C for 72 h is used in each case. Evaluation takes place after 72 h at 37°C.
(§5) The highest dilution of the preparation in CSL or CSL and deactivating substances that still suppresses growth of the test germs after […] incubation serves as the measure of the multiplication-inhibiting action (inhibition titre).
(§6) In the case of the disinhibition tests, the culture media are to be adjusted to a pH value of 7.0 ± 0.2 according to the state of the disinfectant.
(§7) Standard formulation: • aromatic alcohol 5.0 % • Brij 58 5.0 % • 1,3-butanediol to 100 • Test germs: see above • Test method: see above

[2] = system: Staphylococcus aureus ATCC 6538; test: as above
Experimental: as §1, §2, §3, §4, §5, §6, §7

[3] = system: Proteus vulgaris NCTC 4635; test: as above
[4] = system: Penicillium funiculosum ATCC 36839; test: as above
[5] = system: Aspergillus niger ATCC 6275; test: as above
[6] = system: Mycobacterium terrae ATCC 15755; test: Germ carrier experiment with standard cotton; design: key: E: individual colonies; M: several colonies; +: weak growth; ++: moderate growth; +++: heavy growth; ++++: very heavy growth; ∞: lawn growth; conditions: Rewopal MPG 40 25.0%, aromatic alcohol 2.0 %, dem. water to 100
Experimental: • Rewopal MPG 40 25.0% • aromatic alcohol 2.0 % • dem. water to 100
The bacteria are elutriated with 5 ml CSL from a 24 h-old (37°C) culture onto CSA plates measuring approx. 9 cm in diameter, the suspension being diluted with CSL if necessary. The number of CFU/ml is to be determined using surface culture. It should be > 10^9/ml.
The sterilized and dried germ carriers are introduced into the bacterial suspension and left in it for 15 minutes, during which they are turned over twice.
A number (4) of contaminated, thoroughly impregnated germ carriers, corresponding to the proposed removal times - 15, 30, 60 and 120 minutes - is placed in a small dish and 10 ml of the disinfectant solution to be tested in WSH are poured over them. Air bubbles are to be removed by repeated turning of the germ carriers.
After the corresponding action times, the germ carriers are to be removed from the disinfectant solution, and after rinsing twice in each case for 1 min in 10 ml ML solution (see Appendix) to which the deactivating substances were optionally added, the germ carriers are placed onto the surface of a Löwenstein-Jensen nutrient medium with tweezers and moved backwards and forwards 3 to 4 times using light pressure. After inoculating the nutrient medium surface the small cloth is to remain lying directly above the condensed water level of the nutrient medium.
Germ carriers pre-treated in the same way, but kept in WSH for 120 minutes instead of in disinfectant solution are to be inoculated as a control. The inoculated tubes are incubated at 37°C for 3 weeks.

[7] = system: Aspergillus niger ATCC 6275; test: MIC values, water-insoluble (covered area of plates, solutions in acetone); conditions: solution in acetone, 100% means no inhibiting action
Source text: (§8) [table] The size of the covered areas of the plates is given in %; 100% means no inhibiting action.

[8] = system: Candida albicans ATCC 10231; test: as above; conditions: solution in acetone, 100% means no inhibiting action
Source text: as §8

[9] = system: Escherichia coli ATCC 11229; test: as above; conditions: solution in acetone, 100% means no inhibiting action
Source text: as §8

[10] = system: Staphylococcus aureus ATCC 6538; test: as above; conditions: solution in acetone, 100% means no inhibiting action
Source text: as §8

[11] = system: Candida albicans ATCC 10231; test: Plate diffusion test (agar diffusion test); conditions: aromatic alcohol 1 part, dimethylformamide 6 parts
Source text: (§9) Standard formulation: • aromatic alcohol 1 part • dimethylformamide 6 parts [table] The diameters of the inhibition zones are given in mm.

[12] = system: Escherichia coli ATCC 11229; test: Plate diffusion test (agar diffusion test); conditions: aromatic alcohol 1 part, dimethylformamide 6 parts
Source text: as §9

[13] = system: Pseudomonas aeruginosa ATCC 15442; test: Plate diffusion test (agar diffusion test); conditions: aromatic alcohol 1 part, dimethylformamide 6 parts
Source text: as §9

[14] = system: Staphylococcus aureus ATCC 6538; test: Plate diffusion test (agar diffusion test); conditions: aromatic alcohol 1 part, dimethylformamide 6 parts
Source text: as §9

P. vulgaris = system: P. vulgaris
Source text: as §9

[15] = standard formulation: Rewopal MPG 40 25.0 g, aromatic alcohol 10 mmol, dem. water to 100 g, pH 7.0
[16] = standard formulation: aromatic alcohol 5.0 %, Brij 58 5.0 %, 1,3-butanediol to 100

## Cc1cccc(CC(C)(C)CO)c1 [Alcohol 3, 2,2-dimethyl-3-(3-methylphenyl) propanol]
[1]; [15]
  MIC (minimum inhibiting concentration) C. albicans: 625 μmol/100 ml test solution
[1]; [16]
  MIC (minimum inhibiting concentration) C. albicans: 625 µmol/100 ml test solution
[2]; [15]
  MIC (minimum inhibiting concentration) S. aureus: 2,500 μmol/100 ml test solution
[2]; [16]
  MIC (minimum inhibiting concentration) S. aureus: 625 µmol/100 ml test solution
[3]; [15]
  MIC (minimum inhibiting concentration) P. vulgaris: 2,500 μmol/100 ml test solution
[3]; [16]
  MIC (minimum inhibiting concentration) P. vulgaris: 625 µmol/100 ml test solution
[4]; [15]
  MIC (minimum inhibiting concentration) P. funi.: 156 μmol/100 ml test solution
[4]; [16]
  MIC (minimum inhibiting concentration) P. funi.: 313 µmol/100 ml test solution
[5]; [15]
  MIC (minimum inhibiting concentration) A. niger: 156 μmol/100 ml test solution
[5]; [16]
  MIC (minimum inhibiting concentration) A. niger: 625 µmol/100 ml test solution
[6]; 15'
  growth of M. terrae after action time 15': +++
[6]; 30'
  growth of M. terrae after action time 30': +
[6]; 60'
  growth of M. terrae after action time 60': +
[6]; 120'
  growth of M. terrae after action time 120': E

## CCC(CO)Cc1ccc(C)cc1 (centres unmarked) [Alcohol 13]
[7]; concentration 0.25 % by wt.
  size of the covered areas of the plates, A. niger: 100%
[7]; concentration 0.50 % by wt.
  size of the covered areas of the plates, A. niger: 90%
[7]; concentration 1.00 % by wt.
  size of the covered areas of the plates, A. niger: 20%
[8]; concentration 0.25 % by wt.
  size of the covered areas of the plates, C. albicans: 100%
[8]; concentration 0.50 % by wt.
  size of the covered areas of the plates, C. albicans: 100%
[8]; concentration 1.00 % by wt.
  size of the covered areas of the plates, C. albicans: 90%
[9]; concentration 0.25 % by wt.
  size of the covered areas of the plates, E. coli: 100%
[9]; concentration 0.50 % by wt.
  size of the covered areas of the plates, E. coli: 100%
[9]; concentration 1.00 % by wt.
  size of the covered areas of the plates, E. coli: 95%
[10]; concentration 0.25 % by wt.
  size of the covered areas of the plates, S. aureus: 100%
[10]; concentration 0.50 % by wt.
  size of the covered areas of the plates, S. aureus: 100%
[10]; concentration 1.00 % by wt.
  size of the covered areas of the plates, S. aureus: 90%
[11]
  diameters of the inhibition zones, C. albicans: 19 mm
[12]
  diameters of the inhibition zones, E. coli: 13 mm
[13]
  diameters of the inhibition zones, P. aeruginosa: 13 mm
[14]
  diameters of the inhibition zones, S. aureus: 16 mm
P. vulgaris
  diameters of the inhibition zones, P. vulgaris: 14 mm

## CCC(CO)Cc1ccc(C)c(C)c1 (centres unmarked) [Alcohol 14]
[7]; concentration 0.125 % by wt.
  size of the covered areas of the plates, A. niger: 100%
[7]; concentration 0.25 % by wt.
  size of the covered areas of the plates, A. niger: 90%
[7]; concentration 0.50 % by wt.
  size of the covered areas of the plates, A. niger: 80%
[7]; concentration 1.00 % by wt.
  size of the covered areas of the plates, A. niger: 10%
[8]; concentration 0.125 % by wt.
  size of the covered areas of the plates, C. albicans: 100%
[8]; concentration 0.25 % by wt.
  size of the covered areas of the plates, C. albicans: 100%
[8]; concentration 0.50 % by wt.
  size of the covered areas of the plates, C. albicans: 100%
[8]; concentration 1.00 % by wt.
  size of the covered areas of the plates, C. albicans: 20%
[9]; concentration 0.125 % by wt.
  size of the covered areas of the plates, E. coli: 100%
[9]; concentration 0.25 % by wt.
  size of the covered areas of the plates, E. coli: 100%
[9]; concentration 0.50 % by wt.
  size of the covered areas of the plates, E. coli: 100%
[9]; concentration 1.00 % by wt.
  size of the covered areas of the plates, E. coli: 100%
[10]; concentration 0.125 % by wt.
  size of the covered areas of the plates, S. aureus: 100%
[10]; concentration 0.25 % by wt.
  size of the covered areas of the plates, S. aureus: 100%
[10]; concentration 0.50 % by wt.
  size of the covered areas of the plates, S. aureus: 90%
[10]; concentration 1.00 % by wt.
  size of the covered areas of the plates, S. aureus: 30%
[11]
  diameters of the inhibition zones, C. albicans: 22 mm
[12]
  diameters of the inhibition zones, E. coli: 15 mm
[13]
  diameters of the inhibition zones, P. aeruginosa: 18 mm
[14]
  diameters of the inhibition zones, S. aureus: 18 mm
P. vulgaris
  diameters of the inhibition zones, P. vulgaris: 0 mm

## CCC(CO)Cc1cccc(OC)c1 (centres unmarked) [Alcohol 15]
[7]; concentration 0.50 % by wt.
  size of the covered areas of the plates, A. niger: 100%
[7]; concentration 1.00 % by wt.
  size of the covered areas of the plates, A. niger: 90%
[8]; concentration 0.50 % by wt.
  size of the covered areas of the plates, C. albicans: 100%
[8]; concentration 1.00 % by wt.
  size of the covered areas of the plates, C. albicans: 100%
[9]; concentration 0.50 % by wt.
  size of the covered areas of the plates, E. coli: 100%
[9]; concentration 1.00 % by wt.
  size of the covered areas of the plates, E. coli: 100%
[10]; concentration 0.50 % by wt.
  size of the covered areas of the plates, S. aureus: 100%
[10]; concentration 1.00 % by wt.
  size of the covered areas of the plates, S. aureus: 100%
[11]
  diameters of the inhibition zones, C. albicans: 23 mm
[12]
  diameters of the inhibition zones, E. coli: 18 mm
[13]
  diameters of the inhibition zones, P. aeruginosa: 15 mm
[14]
  diameters of the inhibition zones, S. aureus: 18 mm
P. vulgaris
  diameters of the inhibition zones, P. vulgaris: 18 mm

## C=CCC(CO)Cc1ccccc1 (centres unmarked) [Alcohol 17]
[7]; concentration 0.50 % by wt.
  size of the covered areas of the plates, A. niger: 100%
[7]; concentration 1.00 % by wt.
  size of the covered areas of the plates, A. niger: 80%
[8]; concentration 0.50 % by wt.
  size of the covered areas of the plates, C. albicans: 100%
[8]; concentration 1.00 % by wt.
  size of the covered areas of the plates, C. albicans: 100%
[9]; concentration 0.50 % by wt.
  size of the covered areas of the plates, E. coli: 100%
[9]; concentration 1.00 % by wt.
  size of the covered areas of the plates, E. coli: 90%
[10]; concentration 0.50 % by wt.
  size of the covered areas of the plates, S. aureus: 100%
[10]; concentration 1.00 % by wt.
  size of the covered areas of the plates, S. aureus: 100%
[11]
  diameters of the inhibition zones, C. albicans: 17 mm
[12]
  diameters of the inhibition zones, E. coli: 13 mm
[13]
  diameters of the inhibition zones, P. aeruginosa: 12 mm
[14]
  diameters of the inhibition zones, S. aureus: 16 mm
P. vulgaris
  diameters of the inhibition zones, P. vulgaris: 13 mm

## CCCCCC(CO)Cc1ccccc1 (centres unmarked) [Alcohol 18]
[7]; concentration 0.25 % by wt.
  size of the covered areas of the plates, A. niger: 100%
[7]; concentration 0.50 % by wt.
  size of the covered areas of the plates, A. niger: 40%
[7]; concentration 1.00 % by wt.
  size of the covered areas of the plates, A. niger: 0%
[8]; concentration 0.25 % by wt.
  size of the covered areas of the plates, C. albicans: 100%
[8]; concentration 0.50 % by wt.
  size of the covered areas of the plates, C. albicans: 80%
[8]; concentration 1.00 % by wt.
  size of the covered areas of the plates, C. albicans: 70%
[9]; concentration 0.25 % by wt.
  size of the covered areas of the plates, E. coli: 100%
[9]; concentration 0.50 % by wt.
  size of the covered areas of the plates, E. coli: 100%
[9]; concentration 1.00 % by wt.
  size of the covered areas of the plates, E. coli: 100%
[10]; concentration 0.25 % by wt.
  size of the covered areas of the plates, S. aureus: 100%
[10]; concentration 0.50 % by wt.
  size of the covered areas of the plates, S. aureus: 20%
[10]; concentration 1.00 % by wt.
  size of the covered areas of the plates, S. aureus: 0%
[11]
  diameters of the inhibition zones, C. albicans: 11 mm
[12]
  diameters of the inhibition zones, E. coli: 0 mm
[13]
  diameters of the inhibition zones, P. aeruginosa: 0 mm
[14]
  diameters of the inhibition zones, S. aureus: 11 mm
P. vulgaris
  diameters of the inhibition zones, P. vulgaris: 0 mm
